Target: GABAA receptor ([35S]-TBPS binding, rat brain cortical membranes)
Test: Steroid inhibition of [35S]-TBPS binding
Conditions: Table I-1, 3 nM [35S]-TBPS, in the presence of 5 mM GABA, read-out: TBPS binding IC50
Procedure: [^35S]-t-Butylbicyclophosphorothionate (TBPS) binding assays using rat brain cortical membranes in the presence of 5 mM GABA has been described (Gee et al, J. Pharmacol. Exp. Ther. 1987, 241, 346-353; Hawkinson et al, Mol. Pharmacol. 1994, 46, 977-985; Lewin, A. H et al., Mol. Pharmacol. 1989, 35, 189-194).
Briefly, cortices are rapidly removed following decapitation of carbon dioxide-anesthetized Sprague-Dawley rats (200-250 g). The cortices are homogenized in 10 volumes of ice-cold 0.32 M sucrose using a glass/teflon homogenizer and centrifuged at 1500×g for 10 min at 4° C. The resultant supernatants are centrifuged at 10,000×g for 20 min at 4° C. to obtain the P2 pellets. The P2 pellets are resuspended in 200 mM NaCl/50 mM Na—K phosphate pH 7.4 buffer and centrifuged at 10,000×g for 10 min at 4° C. This washing procedure is repeated twice and the pellets are resuspended in 10 volumes of buffer. Aliquots ([…]) of the membrane suspensions are incubated with 3 nM [^35S]-TBPS and […] aliquots of test drug dissolved in dimethyl sulfoxide (DMSO) (final 0.5%) in the presence of 5 mM GABA. The incubation is brought to a final volume of 1.0 mL with buffer. Nonspecific binding is determined in the presence of […] and ranged from 15 to 25%. Following a 90 min incubation at room temp, the assays are terminated by filtration through glass fiber filters (Schleicher and Schuell No. 32) using a cell harvester (Brandel) and rinsed three times with ice-cold buffer. Filter bound radioactivity is measured by liquid scintillation spectrometry. Non-linear curve fitting of the overall data for each drug averaged for each concentration is done using Prism (GraphPad). […] The concentration of test compound producing 50% inhibition (IC50) of specific binding and the maximal extent of inhibition (Imax) are determined for the individual experiments with the same model used for the overall data and then the means±SEM.s of the individual experiments are calculated.
Various compounds are or can be screened to determine their potential as modulators of [^35S]-TBPS binding in vitro. These assays are or can be performed in accordance with the above.

Row | SMILES | IC50 [nM]
1 | Cc1nnnn1CC(=O)[C@H]1CC[C@H]2[C@@H]3CC[C@]4(C)C[C@](C)(O)CC[C@]4(C)[C@H]3CC[C@]12C [I-A8, 1-((3R,5R,8S,9S,10R,13S,14S,17S)-3-hydroxy-3,5,10,13-tetramethylhexadecahydro-1H-cyclopenta[a]phenanthren-17-yl)-2-(5-methyl-1H-tetrazol-1-yl)ethan-1-one] | 100 to 1000
2 | Cc1nnn(CC(=O)[C@H]2CC[C@H]3[C@@H]4CC[C@]5(C)C[C@](C)(O)CC[C@]5(C)[C@H]4CC[C@]23C)n1 [I-A9, 1-((3R,5R,8S,9S,10R,13S,14S,17S)-3-hydroxy-3,5,10,13-tetramethylhexadecahydro-1H-cyclopenta[a]phenanthren-17-yl)-2-(5-methyl-2H-tetrazol-2-yl)ethan-1-one] | 100 to 1000
3 | CC(=O)[C@H]1CC[C@H]2[C@@H]3CC[C@]4(C)C[C@](C)(O)CC[C@]4(C)[C@H]3CC[C@]12C [I-B6, 1-((3R,5R,8S,9S,10R,13S,14S,17S)-3-hydroxy-3,5,10,13-tetramethylhexadecahydro-1H-cyclopenta [a]phenanthren-17-yl)ethan-1-one] | 100 to 1000

Same assay, conditions: Table II-2, 3 nM [35S]-TBPS, in the presence of 5 mM GABA, read-out: TBPS IC50

Row | SMILES | IC50 [nM]
4 | CC[C@]12CC[C@@](C)(O)C[C@H]1CC[C@H]1[C@@H]3CC[C@H](C(=O)N4CC[C@@H](c5ccccc5)C4)[C@@]3(C)CC[C@@H]12 [II-1] | 10 to 100
5 | CC[C@]12CC[C@@](C)(O)C[C@H]1CC[C@H]1[C@@H]3CC[C@H](C(=O)Cn4nccn4)[C@@]3(C)CC[C@@H]12 [II-13, 1-((3R,5R,8S,9S,10S,13S,14S,17S)-10-ethyl-3-hydroxy-3,13-dimethylhexadecahydro-1H-cyclopenta[a]phenanthren-17-yl)-2-(2H-1,2,3-triazol-2-yl)ethan-1-one] | < 10
6 | CC[C@]12CC[C@@](C)(O)C[C@H]1CC[C@H]1[C@@H]3CC[C@H](C(=O)Cn4ccnn4)[C@@]3(C)CC[C@@H]12 [II-13a, 1-((3R,5R,8S,9S,10S,13S,14S,17S)-10-ethyl-3-hydroxy-3,13-dimethylhexadecahydro-1H-cyclopenta[a]phenanthren-17-yl)-2-(1H-1,2,3-triazol-1-yl)ethan-1-one] | < 10
7 | CC[C@]12CC[C@@](C)(O)C[C@H]1CC[C@H]1[C@@H]3CC[C@H](C(=O)Cn4nnc(C)n4)[C@@]3(C)CC[C@@H]12 [II-14, 1-((3R,5R,8S,9S,10S,13S,14S,17S)-10-ethyl-3-hydroxy-3,13-dimethylhexadecahydro-1H-cyclopenta[a]henanthren-17-yl)-2-(5-methyl-2H-tetrazol-2-yl)ethan-1-one] | < 10
8 | CC[C@]12CC[C@@](C)(O)C[C@H]1CC[C@H]1[C@@H]3CC[C@H](C(=O)Cn4nnnc4C)[C@@]3(C)CC[C@@H]12 [II-14a, 1-((3R,5R,8S,9S,10S,13S,14S,17S)-10-ethyl-3-hydroxy-3,13-dimethylhexadecahydro-1H-cyclopenta[a]phenanthren-17-yl)-2-(5-methyl-1H-tetrazol-1-yl)ethan-1-one] | < 10
9 | CC[C@]12CC[C@@](C)(O)C[C@H]1CC[C@H]1[C@@H]3CC[C@H](C(=O)N4CCCC[C@@H]4C)[C@@]3(C)CC[C@@H]12 [II-20, ((3R,5R,8S,9S,10S,13S,14S,17S)-10-ethyl-3-hydroxy-3,13-dimethylhexadecahydro-1H-cyclopenta[a]phenanthren-ren-17-yl)((S)-2-methylpiperidin-1-yl)methanone] | 10 to 100
10 | CC[C@H]1CCCCN1C(=O)[C@H]1CC[C@H]2[C@@H]3CC[C@@H]4C[C@](C)(O)CC[C@]4(CC)[C@H]3CC[C@]12C [II-21, ((3R,5R,8S,9S,10S,13S,14S,17S)-10-ethyl-3-hydroxy-3,13-dimethylhexadecahydro-cyclopenta[a]phenanthren-17-yl)((S)-2-ethylpiperidin-1-yl)methanone] | 10 to 100
11 | CC[C@@H]1CCCCN1C(=O)[C@H]1CC[C@H]2[C@@H]3CC[C@@H]4C[C@](C)(O)CC[C@]4(CC)[C@H]3CC[C@]12C [II-21a, ((3R,5R,8S,9S,10S,13S,14S,17S)-10-ethyl-3-hydroxy-3,13-dimethylhexadecahydro-1H-cyclopenta[a]phenanthren-17-yl)((R)-2-ethylpiperidin-1-yl)methanone] | 10 to 100
12 | CC[C@]12CC[C@@](C)(O)C[C@H]1CC[C@H]1[C@@H]3CC[C@H](C(N)=O)[C@@]3(C)CC[C@@H]12 [II-22, (3R,5R,8S,9S,10S,13S,14S,17S)-10-ethyl-3-hydroxy-3,13-dimethylhexadecahydro-1H-cyclopenta[a]phenanthrene-17-carboxamide] | 100 to 1000
13 | CCOC[C@@]1(O)CC[C@@]2(CC)[C@H](CC[C@H]3[C@@H]4CC[C@H](C(=O)Nc5ccc(C#N)cc5C)[C@@]4(C)CC[C@@H]32)C1 [II-43, (3R,5R,8S,9S,10S,13S,14S,17S)-N-(4-cyano-2-methylphenyl)-3-(ethoxymethyl)-10-ethyl-3-hydroxy-13-methylhexadecahydro-1H-cyclopenta[a]phenanthrene-17-carboxamide] | < 10
14 | CCOC[C@@]1(O)CC[C@@]2(CC)[C@H](CC[C@H]3[C@@H]4CC[C@H](C(=O)N5CCCC[C@@H]5C)[C@@]4(C)CC[C@@H]32)C1 [II-44, ((3R,5R,85,95,10S,13S,14S,17S)-3-(ethoxymethyl)-10-ethyl-3-hydroxy-13-methylhexadecahydro-1H-cyclopenta[a]phenanthren-17-yl)((S)-2-methylpiperidin-1-yl)methanone] | 100 to 1000
15 | CCOC[C@@]1(O)CC[C@@]2(CC)[C@H](CC[C@H]3[C@@H]4CC[C@H](C(=O)N5CCCC[C@H]5C)[C@@]4(C)CC[C@@H]32)C1 [II-45, ((3R,5R,8S,9S,10S,13S,14S,17S)-3-(ethoxymethyl)-10-ethyl-3-hydroxy-13-methylhexadecahydro-1H-cyclopenta[a]phenanthren-17-yl)((R)-2-methylpiperidin-1-yl)methanone] | 10 to 100
16 | CCOC[C@@]1(O)CC[C@@]2(CC)[C@H](CC[C@H]3[C@@H]4CC[C@H](C(=O)Nc5ccccc5)[C@@]4(C)CC[C@@H]32)C1 [II-46, (3R,5R,85,95,10S,13S,14S,17S)-3-(ethoxymethyl)-10-ethyl-3-hydroxy-13-methyl-N-phenylhexadecahydro-1H-cyclopenta[a]phenanthrene-17-carboxamide] | 10 to 100
17 | CCOC[C@@]1(O)CC[C@@]2(CC)[C@H](CC[C@H]3[C@@H]4CC[C@H](C(=O)Nc5ccccc5C)[C@@]4(C)CC[C@@H]32)C1 [II-47, (3R,5R,8S,9S,10S,13S,14S,17S)-3-(ethoxymethyl)-10-ethyl-3-hydroxy-13-methyl-N-(o-tolyl)hexadecahydro-1H-cyclopenta[a]phenanthrene-17-carboxamide] | < 10
18 | CCOC[C@@]1(O)CC[C@@]2(CC)[C@H](CC[C@H]3[C@@H]4CC[C@H](C(N)=O)[C@@]4(C)CC[C@@H]32)C1 [II-48, (3R,5R,8S,9S,10S,13S,14S,17S)-3-(ethoxymethyl)-10-ethyl-3-hydroxy-13-methylhexadecahydro-1H-cyclopenta[a]phenanthrene-17-carboxamide] | 100 to 1000

From patent publication US20210101928A1 (Sage Therapeutics, Inc., priority 2017, published 2021)
